The text below walks through data of ChEMBL document CHEMBL3639134, “Diphenylmethane derivatives as SGLT2 inhibitors” (2015).

The test concerns the target T1, Sodium/glucose cotransporter 2 (Homo sapiens, UniProt P31639).
T1 sequence (P31639 whole entry): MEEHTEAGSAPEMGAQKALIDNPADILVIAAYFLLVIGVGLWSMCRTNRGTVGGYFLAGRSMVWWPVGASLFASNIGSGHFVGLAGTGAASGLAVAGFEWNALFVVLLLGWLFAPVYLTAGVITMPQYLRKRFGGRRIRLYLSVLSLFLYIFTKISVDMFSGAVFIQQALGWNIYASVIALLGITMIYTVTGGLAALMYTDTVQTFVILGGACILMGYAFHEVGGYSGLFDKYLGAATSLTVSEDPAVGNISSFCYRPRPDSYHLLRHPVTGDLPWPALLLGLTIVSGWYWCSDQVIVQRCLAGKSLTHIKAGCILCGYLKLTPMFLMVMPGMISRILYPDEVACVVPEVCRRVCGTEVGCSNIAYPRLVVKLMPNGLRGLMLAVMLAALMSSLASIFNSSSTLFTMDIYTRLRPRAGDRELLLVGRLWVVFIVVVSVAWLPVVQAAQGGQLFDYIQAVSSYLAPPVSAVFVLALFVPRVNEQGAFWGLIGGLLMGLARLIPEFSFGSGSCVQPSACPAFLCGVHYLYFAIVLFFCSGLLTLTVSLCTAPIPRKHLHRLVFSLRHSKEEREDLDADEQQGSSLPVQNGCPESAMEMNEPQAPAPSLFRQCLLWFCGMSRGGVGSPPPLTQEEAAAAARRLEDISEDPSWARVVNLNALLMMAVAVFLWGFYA
Description: Inhibition Assay: For sodium-dependent glucose transport assay, cells expressing hSGLT2 were seeded into a 96-well culture plate at a density of 5x10^4 cells/well in RPMI medium 1640 containing 10% fetal bovine serum. The cells were used 1 day after plating. They were incubated in pretreatment buffer (10 mM HEPES, 5 mM Tris, 140 mM choline chloride, 2 mM KCl, 1 mM CaCl2, and 1 mM MgCl2, pH 7.4) at 37 C. for 10 min. They were then incubated in uptake buffer (10 mM HEPES, 5 mM Tris, 140 mM NaCl, 2 mM KCl, 1 mM CaCl2, 1 mM MgCl2, and 1 mM 14C-nonlabeled AMG pH 7.4) containing 14C-labeled AMG (8 uM) and the inventive compound or dimethyl sulfoxide (DMSO) vehicle at 37 C. for 2 h. Cells were washed twice with washing buffer (pretreatment buffer containing 10 mM AMG at room temperature) and then the radioactivity was measured using a liquid scintillation counter. IC50 was determined by nonlinear regression analysis using GraphPad PRISM [Katsuno, K. et al. J. Pharmacol. Exp. Ther. 2007, 320, 323-330].

As usually defined, the IC50 is the concentration that inhibits the measured activity by half. For `OC[C@H]1O[C@@H](c2cc(Cc3ccc(N4CCC4)cc3)c(Cl)c3c2CCO3)[C@H](O)[C@@H](O)[C@@H]1O`, the IC50 was found to be 3.49 nM. `CCOc1ccc(Cc2cc([C@@H]3O[C@H](CO)[C@@H](O)[C@H](O)[C@H]3O)c3c(c2Cl)NCCO3)cc1`: the IC50 turned out to be 2.42 nM. As to `CCOc1ccc(Cc2cc([C@@H]3O[C@H](CO)[C@@H](O)[C@H](O)[C@H]3O)c3c(c2C2CC2)OCC3)cc1`, the IC50 worked out at 13.8 nM. In the case of `OC[C@H]1O[C@@H](c2cc(Cc3ccc(N4CCC4)cc3)c(Cl)c3c2CCC3)[C@H](O)[C@@H](O)[C@@H]1O`, the IC50 is 1.75 nM. For the compound `CCOc1ccc(Cc2cc([C@@H]3O[C@H](CO)[C@@H](O)[C@H](O)[C@H]3O)c3c(c2Cl)OCO3)cc1`, the IC50 worked out at 1.08 nM.
